Some test systems named below: RXF 393 renal; SK-MEL-2 melanoma; SNB-75 CNS; 786-0 renal; IGROV1 ovarian; OVCAR-5 ovarian; HOP-62 NSCLC; OVCAR-8 ovarian; CCRF-CEM leukemia; NCI-H522 lung.
What all share (assay): NCI-60 cell line screen, 48 h

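Interpolation was linear, between the two tested concentrations surrounding the appropriate level; five concentrations were tested over 48 hours in 96-well plates. Here, GI50 denotes the concentration required for 50% inhibition of growth. At the TGI there is no net growth.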

Consider `Cc1cccc(C)c1NC(=O)CCc1nnc2s/c(=C\c3ccc(Cl)cc3)c(=O)n12`, for which the TGI in the experiment on RXF 393 renal, in the experiment with SK-MEL-2 melanoma, in the experiment on SNB-75 CNS, with 786-0 renal, with IGROV1 ovarian and in the experiment on OVCAR-5 ovarian was greater than 100 µM throughout. Moreover, the TGI in the experiment on HOP-62 NSCLC, in the experiment on OVCAR-8 ovarian, with CCRF-CEM leukemia and with NCI-H522 lung was greater than 100 µM throughout.
Take `COC(=O)c1c2c(c(C)[n+]([O-])c1C)C(=O)C=C(NCc1ccc(OC)cc1)C2=O`: the GI50 was 2.02 µM in the experiment on RXF 393 renal; 2.14 µM in the experiment on SK-MEL-2 melanoma; 5.12 µM in the experiment on SNB-75 CNS; 5.48 µM with 786-0 renal; 1.06 µM with IGROV1 ovarian; 2.3 µM in the experiment with OVCAR-5 ovarian. The GI50 was 2.48 µM in the experiment with HOP-62 NSCLC, 1.11 µM in the experiment with OVCAR-8 ovarian, 1.29 µM in the experiment on CCRF-CEM leukemia and 1.82 µM in the experiment on NCI-H522 lung. The TGI amounted to 5.99 µM with RXF 393 renal; 6.64 µM with SK-MEL-2 melanoma; 9.53 µM in the experiment with SNB-75 CNS; 23.3 µM in the experiment with 786-0 renal; 3.59 µM in the experiment with IGROV1 ovarian; 6.13 µM in the experiment on OVCAR-5 ovarian. The TGI worked out at 7.84 µM in the experiment with HOP-62 NSCLC, 4.48 µM in the experiment with OVCAR-8 ovarian, 14 µM in the experiment with CCRF-CEM leukemia and 5.16 µM in the experiment on NCI-H522 lung.
On to `COc1ccc(-c2nc3ncccn3c2/C=C/C(=O)c2cc(OC)c(OC)c(OC)c2)cc1`, for which the GI50 in the experiment with RXF 393 renal is 1.11 µM; in the experiment with SK-MEL-2 melanoma, 1.87 µM; with SNB-75 CNS, 1.89 µM; in the experiment with 786-0 renal, 1.84 µM; with IGROV1 ovarian it was 2.2 µM; with OVCAR-5 ovarian, 1.53 µM. Also, the GI50 in the experiment on HOP-62 NSCLC was 2.83 µM; in the experiment on OVCAR-8 ovarian, 2.72 µM; in the experiment on CCRF-CEM leukemia it was 4.01 µM; with NCI-H522 lung, 1.66 µM. Moreover, the TGI in the experiment with RXF 393 renal was determined as 2.57 µM; with SK-MEL-2 melanoma, 4.69 µM; in the experiment with SNB-75 CNS, 5.05 µM; in the experiment on 786-0 renal, 5.51 µM; in the experiment on IGROV1 ovarian, 6.29 µM; with OVCAR-5 ovarian, 3.59 µM. Also, the TGI in the experiment on HOP-62 NSCLC is 10.3 µM; in the experiment on OVCAR-8 ovarian, greater than 100 µM; with CCRF-CEM leukemia it was greater than 100 µM; in the experiment with NCI-H522 lung, 3.89 µM.
For `O=c1ccnc2c1ccc1[nH]cccc12`, the TGI in the experiment on RXF 393 renal, with SK-MEL-2 melanoma, with SNB-75 CNS, with 786-0 renal, in the experiment with IGROV1 ovarian and with OVCAR-5 ovarian was greater than 100 µM in each case. Moreover, the TGI in the experiment on HOP-62 NSCLC, with OVCAR-8 ovarian, in the experiment with CCRF-CEM leukemia and in the experiment on NCI-H522 lung was greater than 100 µM throughout.
Consider `CC1(C)CC(n2cnc(-c3ccc(F)cc3)c2-c2ccnc(N)n2)CC(C)(C)N1`, for which the GI50 with RXF 393 renal was greater than 24.1 µM; with SK-MEL-2 melanoma it was greater than 25 µM; in the experiment with SNB-75 CNS it was greater than 16.5 µM; in the experiment on 786-0 renal, greater than 25 µM; in the experiment on IGROV1 ovarian it was 24.7 µM; with OVCAR-5 ovarian, 24.4 µM. Further, the GI50 with HOP-62 NSCLC was greater than 16.8 µM; in the experiment with OVCAR-8 ovarian, 15.6 µM; in the experiment with CCRF-CEM leukemia, greater than 25 µM; in the experiment on NCI-H522 lung, 17.6 µM. The TGI in the experiment with RXF 393 renal, with SK-MEL-2 melanoma, in the experiment on SNB-75 CNS, in the experiment on 786-0 renal, with IGROV1 ovarian and in the experiment on OVCAR-5 ovarian was greater than 25 µM in each case. For the same compound, the TGI with HOP-62 NSCLC, in the experiment on OVCAR-8 ovarian, in the experiment with CCRF-CEM leukemia and in the experiment on NCI-H522 lung was greater than 25 µM each time.
Take `c1cc(OCCN2CCCCC2)ccc1CNc1ccc2nc(CCC3CCCCC3)[nH]c2c1`: the GI50 with RXF 393 renal is 1.5 µM; in the experiment on SK-MEL-2 melanoma, 1.88 µM; in the experiment with SNB-75 CNS, 1.62 µM; in the experiment on 786-0 renal, 1.65 µM; in the experiment with IGROV1 ovarian, 2.32 µM; with OVCAR-5 ovarian, 2.04 µM. Further, the GI50 is 1.79 µM in the experiment on HOP-62 NSCLC, 2.42 µM in the experiment on OVCAR-8 ovarian, 1.97 µM in the experiment with CCRF-CEM leukemia and 1.98 µM with NCI-H522 lung. Also, the TGI with RXF 393 renal was 3.49 µM; in the experiment with SK-MEL-2 melanoma, 3.62 µM; with SNB-75 CNS, 4.08 µM; in the experiment on 786-0 renal, 3.55 µM; in the experiment on IGROV1 ovarian it was 6.59 µM; in the experiment on OVCAR-5 ovarian, 5.64 µM. Also, the TGI in the experiment with HOP-62 NSCLC amounted to 3.4 µM; in the experiment with OVCAR-8 ovarian, 6.82 µM; with CCRF-CEM leukemia, 8.34 µM; with NCI-H522 lung, 3.94 µM.
For the compound `COC(=O)C12CC(c3ccccc31)C1C(=O)OC(=O)C12` (stereo not given), the TGI in the experiment with RXF 393 renal, in the experiment with SK-MEL-2 melanoma, in the experiment on SNB-75 CNS, in the experiment on 786-0 renal, in the experiment with IGROV1 ovarian and with OVCAR-5 ovarian was greater than 100 µM throughout. Further, the TGI with HOP-62 NSCLC, in the experiment with OVCAR-8 ovarian, with CCRF-CEM leukemia and in the experiment on NCI-H522 lung was greater than 100 µM throughout.
